Experimental findings from patent US9718809B2, “Bisarylsulfonamides useful in the treatment of inflammation and cancer” (Kancera AB, priority 2011, dated 2017) are described below.

Counter-ions that a name gives are not always drawn.

Data set [1] concerns F-2,6-P2 in PANC-1 cells. Put plainly: Quantification of F-2,6-P2 (Van Schaftingen coupled enzyme assay) in PANC-1 cells. The following applies: Homo sapiens; PANC-1 cells; read-out: IC50 based on quantification of F-2,6-P2. It is filed as cell-based, human. The procedure, abridged: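 PANC-1 cells (~25 000/well) starved 18 h in glucose-free 0.25% FBS medium, treated 1 h with compound (50 and 10 μM, or dose response from 50 μM; 0.5% DMSO), then glucose added for 2 h at 37 °C. Cells lysed in NaOH; F-2,6-P2 quantified by PPi-PFK coupled NADH-consumption spectrophotometry.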

The test system of data set [2] is F-2,6-P2 in NUGC-3 cells. The experiment in a line: Quantification of F-2,6-P2 (Van Schaftingen coupled enzyme assay) in NUGC-3 cells. To be noted: Homo sapiens; NUGC-3 cells; read-out: IC50 based on quantification of F-2,6-P2. It is filed as cell-based. The text has this: A method for quantification of F-2,6-P2 has been described by Van Schaftingen et al. (1982) Eur. J. Biochem. 129, 191-5. This sensitive assay is based on the potent activation of pyrophosphate dependent phosphofructokinase-1 (PPi-PFK) from potato tubers by F-2,6-P2. The use of a series of coupled enzymes leads to a consumption of NADH (nicotinamide adenine dinucleotide) that can be followed spectrophotometrically (an updated protocol is available in Van Schaftingen, (1984) Methods of Enzymatic Analysis (Bergmeyer, H. U., ed.), 3rd edn., vol. 6, pp. 335-341, Verlag Chemie, Weinheim). A protocol for measurements in 96-well microtiter plate format is also available (Bruni et al., (1989) Anal. Biochem. 178, 324-6).
The levels of F-2,6-P2 have been determined using the van Shaftingen assay as described in the protocol below, in six different cancer cell lines endogenously expressing varying levels of the different isoforms of PFK-2/BPase-2 (MCF-7, PANC-1, NUGC-3, SW480, SW620 and MIA PaCa-2). All reagents were purchased from commercial sources or prepared in-house.
Cell line C (NUGC-3, human gastric cancer cell line): NUGC-3 cells (JCRB0822), lot no. 04272009. Growth medium: RPMI1640, #R8758, Sigma-Aldrich; 10% FBS, Invitrogen, 10270-106 or Dulbecco's Modified Eagle's Medium, DMEM, VWR, LONZ12-604F; 10% FBS, Invitrogen, 10270-106. Cells were seeded at a concentration of ˜350 000 cells/mL in 100 μL growth medium (˜35 000 cells/well).
Starvation medium (cell lines A-F): DMEM/F12 without phenol red and glucose free, SVA, 991373; 0.25% FBS, Invitrogen, 10270-106.
Induction medium (cell lines A-F): DMEM/F12 without phenol red and glucose free, SVA, 991373; 0.25% FBS, Invitrogen, 10270-106 (same as starvation medium).
Cells were seeded in 96-well Corning Costar tissue culture plates (CLS3595, Sigma-Aldrich) using the concentrations specified above for the different cell lines A-F and incubated over night at 37° C. and 5% CO2. Row A in the plate was left empty and the cell lines added to rows B-H. Next day the growth medium was discarded and replaced with 100 μL starvation medium. The plates were incubated for 18 h at 37° C. and 5% CO2. After 18 h of starvation the cells were induced with 100 μL compound or control solutions. Compounds were either tested in two concentrations (50 μM and 10 μM) or in dose response curves starting from 50 μM. The final DMSO concentration in assay plates was 0.5%. Also a dose response curve of a reference inhibitor was included in row H on each plate. All compounds were tested in duplicate plates. Compounds (in 96 well CLS 3365, Sigma-Aldrich plates) were serial diluted in DMSO from 10 mM compound DMSO stock solutions with Janus (automated liquid handling workstation from PerkinElmer). Five μL were transferred to a Greiner deep well plate (736-0155, VWR) with 495 μL starvation medium. The final start concentration of compounds in the dilution plate was 100 μM, 1% DMSO. For compounds tested as single points, 10 mM compound solutions were diluted five fold in DMSO to 2 mM, followed by the transfer of 5 μL to separate dilution plates with 495 μL starvation medium. The final concentrations of compounds in these dilution plates were 100 or 20 μM, respectively, and final concentration of DMSO was 1%. The plates were incubated at 37° C. and 5% CO2 for 1 h, followed by the addition of 10 μL 20 mM D-glucose in starvation medium. Controls, with and without 1 mM glucose, were included in row B. The final assay volume was 210 μL per well. After 2 h of incubation at 37° C. and 5% CO2, the supernatants were discarded and the cells lysed by the addition of 25 μL 250 mM NaOH. The plates were incubated at 37° C. and 5% CO2 for 5 min followed by an addition of 75 μL MilliQ dH2O. The supernatants were further diluted with 210 μL MilliQ dH2O to a final concentration of 20 mM NaOH. 200 μL were transferred to NUNC 96-well plates (7322661, VWR) and the plates were sealed and stored at −20° C. until analysis. […]

Data set [3] deals with NUGC-3 cells. The experiment in a line: Inhibition of cancer cell proliferation, total cellular protein (Sulphorhodamine B), NUGC-3. To be noted: Homo sapiens, 72 h, read-out: IC50 based on quantitation of total cellular protein after treatment. The procedure:
(§1) To assess the antiproliferative response elicited by the compounds of the present invention in different tumour cell lines, total cellular protein in samples was quantified using the Sulphorhodamine B kit, TOX6, (Sigma-Aldrich). The protocol is based on quantitation of total cellular protein after indicated treatments and incubation times using the Sulphorhodamine B kit, TOX6, (Sigma-Aldrich).
(§2) Briefly, after protein precipitation using TCA according to the manufacturer's instructions, the sulphorhodamine dye (80 μL/well) was added to the air-dried wells. After 20 min incubation at room temperature, the dye was discarded and the samples were gently rinsed with 1% HOAc until clear. After air drying, bound dye was solubilised in 200 μL 10 mM Tris base, and the absorbance of dye was measured at 565 nm. To quantify growth, samples were collected also at t=0 h, and the resulting absorbance was set to 100%.
(§3) For experiments studying the effect of the herein described compounds per se, i.e. without combination treatment with cisplatin, the above protocol was applied with the following modifications. See Table II for details for each specific cell line. Briefly, cells were plated at a density of 6,000 cells/well 96-well Corning Costar tissue culture plates (CLS3596, Sigma-Aldrich) in assay medium and allowed to attach over night at 37° C., 5% CO2. Day 2 the compounds were diluted ½ in dose response curve mode in 100% DMSO, required volume was transferred to assay medium to a maximal DMSO concentration of 0.1%. The diluted compounds were added to the cells with a starting dose response concentration of 100 μM. All compounds were tested in duplicate plates.
(§4) After protein precipitation using TCA according to the manufacturer's instructions, the sulforhodamine B dye (50 μL/well) was added to the air-dried wells. After 20 min incubation at room temperature, the dye was discarded and the samples were gently rinsed with 1% HOAc until clear. After air drying, bound dye was solubilised in 100 μL 10 mM Tris base, and the absorbance of dye was measured at 530 nm and a background absorbance (subtract from the measurement at 530 nm) at 690 nm. To quantify growth, samples were collected also at t=0 h.

The test system of data set [4] is PANC-1 cells. Put plainly: Inhibition of cancer cell proliferation, total cellular protein (Sulphorhodamine B), PANC-1. The following applies: Homo sapiens, 72 h, read-out: IC50 based on quantitation of total cellular protein after treatment. How it is done: as §1, §2, §3, §4
A short description of data set [5]: Cell toxicity, CellTiter-Blue Cell Viability Assay. To be noted: human, MIA PaCa-2 pancreatic carcinoma cells, MIA PaCa-2 cells, 72 h culture, read-out: IC50 based on cell toxicity. How it is done:
The CellTiter-Blue® Cell Viability Assay provides a homogeneous, fluorometric method for estimating the number of viable cells present in multi-well plates. It uses the indicator dye resazurin to measure the metabolic capacity of cells. Viable cells retain the ability to reduce resazurin into resorufin, which is highly fluorescent.
Stock solutions (10 or 100 mM in DMSO) of compounds were serially diluted 1:2 in 11 concentrations. 25 nL/well (100 mM stock) or 50 nL/well (10 mM stock) were acoustically dispensed in assay plates with EDC acoustic dispenser. Final starting conc. in assay was 20 μM (0.2% DMSO) or 100 μM (0.1% DMSO) for test compounds.
Cells (MIA-PaCa-2; pancreatic carcinoma) were seeded in assay plates (384-well black/clear, Greiner #781091) pre-dispensed with compounds, 25 μL/well, and cultured for 72 h. The cell concentration was 750 cells/well. After 72 h culture, Celltiter Blue reagent was added (5 μL/well) and the plates were incubated for 2 h. The plates were read in an Envision fluorescence reader with Ex544 nm/Em590 nm. Results were calculated as % cytotoxicity compared to background (cells treated with 0.2% DMSO).

Data set [6] has as its system SW480 cells. Put plainly: Inhibition of cancer cell proliferation, total cellular protein (Sulphorhodamine B), SW480. To be noted: Homo sapiens, 72 h, read-out: IC50 based on quantitation of total cellular protein after treatment. The procedure: as §1, §2, §3
After protein precipitation using TCA according to the manufacturer's instructions, the sulforhodamine B dye (50 μL/well) was added to the air-dried wells. […] After air drying, bound dye was solubilised in 100 μL 10 mM Tris base, and the absorbance of dye was measured at 530 nm and a background absorbance (subtract from the measurement at 530 nm) at 690 nm. To quantify growth, samples were collected also at t=0 h.

A word on the IC50: it is the concentration that gives 50% inhibition. Take `COC(=O)c1ccc(NS(=O)(=O)c2cc(Cl)c(Cl)s2)cc1O` [Example 27, Methyl 4-{[(4,5-dichloro-2-thienyl)sulfonyl]amino}-2-hydroxybenzoate]: the IC50 is 0.8 µM in data set [1] and 0.9 µM in data set [2]. Turning to `COC(=O)c1ccc(NS(=O)(=O)c2cc(-c3cc(F)ccc3F)c(Cl)s2)cc1O` [Example 45, Methyl 4-({[5-chloro-4-(2,5-difluorophenyl)-2-thienyl]sulfonyl}amino)-2-hydroxybenzoate], the IC50 in data set [3] amounted to 22.5 µM.

`CC(C)OC(=O)c1ccc(NS(=O)(=O)c2cc(Cl)c(Cl)s2)cc1O` [Example 68, Isopropyl 4-{[(4,5-dichloro-2-thienyl)sulfonyl]amino}-2-hydroxybenzoate]: the IC50 in data set [4] was found to be 15.6 µM. Regarding `O=C(OCC1CCOC1)c1ccc(NS(=O)(=O)c2cc(Cl)c(Cl)s2)cc1O` (stereo not shown) [Example 75, Tetrahydrofuran-3-ylmethyl 4-{[(4,5-dichloro-2-thienyl)sulfonyl]amino}-2-hydroxybenzoate], in data set [5], the IC50 at 72 h is 25.3 µM.

On to `COC(=O)c1ccc(NS(=O)(=O)c2cccc(-c3cc(F)ccc3O)c2)cc1O` [Example 134, Methyl 4-{[(5′-fluoro-2′-hydroxybiphenyl-3-yl)sulfonyl]amino}-2-hydroxybenzoate], for which the IC50 in data set [3] was 13 µM. As for `O=C(OCCCN1CCOCC1)c1ccc(NS(=O)(=O)c2cccc(-c3cc(F)ccc3O)c2)cc1O` [Example 160, 3-Morpholin-4-ylpropyl 4-{[(5′-fluoro-2′-hydroxybiphenyl-3-yl)sulfonyl]amino}-2-hydroxybenzoate trifluoroacetate], the IC50 at 72 h in data set [5] was found to be 3.6 µM.

Take `O=C(OCCCN1CCOCC1)c1ccc(NS(=O)(=O)c2cc(-c3ccc4c(c3)CCO4)c(Cl)s2)cc1O` [Example 163, 3-Morpholin-4-ylpropyl 4-({[5-chloro-4-(2,3-dihydro-1-benzofuran-5-yl)-2-thienyl]sulfonyl}amino)-2-hydroxybenzoate trifluoroacetate]: the IC50 in data set [4] came to 30.2 µM. As for `COCCOC(=O)c1ccc(NS(=O)(=O)c2cccc(-c3cc(F)ccc3F)c2)cc1O` [Example 172, 2-Methoxyethyl 4-{[(2′,5′-difluorobiphenyl-3-yl)sulfonyl]amino}-2-hydroxybenzoate], the IC50 in data set [6] turned out to be 15.9 µM. Turning to `CCC(COC(=O)c1ccc(NS(=O)(=O)c2cccc(-c3cc(F)ccc3O)c2)cc1O)OC` (stereo not shown) [Example 182, 2-Methoxybutyl 4-{[(5′-fluoro-2′-hydroxybiphenyl-3-yl)sulfonyl]amino}-2-hydroxybenzoate], the IC50 at 72 h in data set [5] is 6.3 µM. On to `CCC(COC)OC(=O)c1ccc(NS(=O)(=O)c2cc(Cl)cc(Cl)c2)cc1O` (stereo not shown) [Example 189, 1-(Methoxymethyl)propyl 4-{[(3,5-dichlorophenyl)sulfonyl]amino}-2-hydroxybenzoate], for which the IC50 in data set [3] stood at 16.4 µM. As to `COCC(C)OC(=O)c1ccc(NS(=O)(=O)c2cc(Cl)cc(Cl)c2)cc1O` (stereo not shown) [Example 192, 2-Methoxy-1-methylethyl 4-{[(3,5-dichlorophenyl)sulfonyl]amino}-2-hydroxybenzoate], the IC50 in data set [6] worked out at 22.3 µM.

On to `CCC(COC)OC(=O)c1ccc(NS(=O)(=O)c2cc(Cl)c(Cl)s2)cc1O` (stereo not shown) [Example 195, 1-(Methoxymethyl)propyl 4-{[(4,5-dichlorothiophen-2-yl)sulfonyl]amino}-2-hydroxybenzoate], for which, in data set [6], the IC50 came out at 20.4 µM.

On to `O=C(OCCCN1CCOCC1)c1ccc(NS(=O)(=O)c2c(Cl)sc(Cl)c2Br)cc1O` [Example 199, 3-Morpholin-4-ylpropyl 4-{[(4-bromo-2,5-dichlorothiophen-3-yl)sulfonyl]amino}-2-hydroxybenzoate trifluoroacetate], for which, in data set [4], the IC50 came to 20.6 µM. `O=C(OCCOc1ccccc1)c1ccc(NS(=O)(=O)c2cccc(-c3cc(F)ccc3O)c2)cc1O` [Example 203, 2-Phenoxyethyl 4-{[(5′-fluoro-2′-hydroxybiphenyl-3-yl)sulfonyl]amino}-2-hydroxybenzoate]: in data set [3], the IC50 came to 6.8 µM. As for `CC(C)(C)OC(=O)N1CCC(OC(=O)c2ccc(NS(=O)(=O)c3c(Cl)sc(Cl)c3Cl)cc2O)C1` (stereo not shown) [Example 205, tert-Butyl 3-[(2-hydroxy-4-{[(2,4,5-trichloro-3-thienyl)sulfonyl]amino}benzoyl)oxy]pyrrolidine-1-carboxylate], the IC50 at 72 h in data set [5] turned out to be 17.7 µM.
